Tested on: 485368-065-R3-J5-PDC spheroids with HUVEC/MSC, viability
Test: Anticancer human tumor 485368-065-R3-J5-PDC patient-derived pancreatic carcinoma cell line growth inhibition [RAS]
Settings: for IC50: curve of first compound; for viability, T/C: stronger effect = lower value
In short: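 Multi-cell-type spheroids: tumor cells plus HUVEC endothelial cells and mesenchymal stem cells. RAS-pathway inhibitors were combined with targeted agents, each dosed in half-log steps down from clinical Cmax, or from 10 microM when Cmax was unknown.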

[1] = second compound 0.000949 µM, first compound 0.0316 µM
[2] = second compound 0.000949 µM, first compound 0.1 µM
[3] = second compound 0.000949 µM, first compound 0.316 µM
[4] = second compound 0.000949 µM, first compound 1 µM
[5] = second compound 0.000949 µM, first compound 3.16 µM
[6] = second compound 0.000949 µM, first compound 10 µM
[7] = second compound 0.003 µM, first compound 0.0316 µM
[8] = second compound 0.003 µM, first compound 0.1 µM
[9] = second compound 0.003 µM, first compound 0.316 µM
[10] = second compound 0.003 µM, first compound 1 µM
[11] = second compound 0.003 µM, first compound 3.16 µM
[12] = second compound 0.003 µM, first compound 10 µM
[13] = second compound 0.00949 µM, first compound 0.0316 µM
[14] = second compound 0.00949 µM, first compound 0.1 µM
[15] = second compound 0.00949 µM, first compound 0.316 µM
[16] = second compound 0.00949 µM, first compound 1 µM
[17] = second compound 0.00949 µM, first compound 3.16 µM
[18] = second compound 0.00949 µM, first compound 10 µM
[19] = second compound 0.03 µM, first compound 0.0316 µM
[20] = second compound 0.03 µM, first compound 0.1 µM
[21] = second compound 0.03 µM, first compound 0.316 µM
[22] = second compound 0.03 µM, first compound 1 µM
[23] = second compound 0.03 µM, first compound 3.16 µM
[24] = second compound 0.03 µM, first compound 10 µM
[25] = second compound 0.0949 µM, first compound 0.0316 µM
[26] = second compound 0.0949 µM, first compound 0.1 µM
[27] = second compound 0.0949 µM, first compound 0.316 µM
[28] = second compound 0.0949 µM, first compound 1 µM
[29] = second compound 0.0949 µM, first compound 3.16 µM
[30] = second compound 0.0949 µM, first compound 10 µM
[31] = second compound 0.3 µM, first compound 0.0316 µM
[32] = second compound 0.3 µM, first compound 0.1 µM
[33] = second compound 0.3 µM, first compound 0.316 µM
[34] = second compound 0.3 µM, first compound 1 µM
[35] = second compound 0.3 µM, first compound 3.16 µM
[36] = second compound 0.3 µM, first compound 10 µM
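Also: spheroids exposed to agents for seven days before readout.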

NC1c2ccccc2OC12CCN(c1cnc3c(N4CCCc5ncccc54)n[nH]c3n1)CC2 (centres undefined) + CCn1c(-c2cccnc2C(C)OC)c2c3cc(ccc31)N1CCOC(CC(NC(=O)C(C(C)C)N(C)C(=O)C3(F)CCN(C(=O)C#CC(C)(C)N(C)C)CC3)C(=O)N3CCCC(N3)C(=O)OCC(C)(C)C2)C1
IC50 (second compound 0.000949 µM): > 10000 nM | IC50 (second compound 0.003 µM): > 10000 nM | IC50 (second compound 0.00949 µM): > 10000 nM | IC50 (second compound 0.03 µM): > 10000 nM | IC50 (second compound 0.0949 µM): > 10000 nM | IC50 (second compound 0.3 µM): > 10000 nM | viability, T/C [1]: 84.7% | viability, T/C [2]: 84.3% | viability, T/C [3]: 81.9% | viability, T/C [4]: 91.1% | viability, T/C [5]: 86.6% | viability, T/C [6]: 81.9% | viability, T/C [7]: 85.7% | viability, T/C [8]: 90.1% | viability, T/C [9]: 82.8% | viability, T/C [10]: 80.5% | viability, T/C [11]: 92.8% | viability, T/C [12]: 87.9% | viability, T/C [13]: 89.7% | viability, T/C [14]: 90.3% | viability, T/C [15]: 82.6% | viability, T/C [16]: 78.6% | viability, T/C [17]: 88.9% | viability, T/C [18]: 84.9% | viability, T/C [19]: 98.7% | viability, T/C [20]: 93% | viability, T/C [21]: 82.7% | viability, T/C [22]: 79.2% | viability, T/C [23]: 83.6% | viability, T/C [24]: 81.4% | viability, T/C [25]: 82.3% | viability, T/C [26]: 86.8% | viability, T/C [27]: 81.1% | viability, T/C [28]: 77% | viability, T/C [29]: 87.7% | viability, T/C [30]: 76.5% | viability, T/C [31]: 78.3% | viability, T/C [32]: 86.1% | viability, T/C [33]: 75.3% | viability, T/C [34]: 81.1% | viability, T/C [35]: 98.2% | viability, T/C [36]: 69.7%

C[C@@H](NC(=O)c1ncnc(N)c1Cl)c1ncc(C(=O)Nc2cc(C(F)(F)F)c(Cl)cn2)s1 + CCn1c(-c2cc(N3CCN(C)CC3)cnc2C(C)OC)c2c3cc(ccc31)-c1csc(n1)CC(NC(=O)C1CC1C)C(=O)N1CCCC(N1)C(=O)OCC(C)(C)C2
IC50 (second compound 0.000949 µM): 31.6 nM | IC50 (second compound 0.003 µM): < 31.6 nM | IC50 (second compound 0.00949 µM): < 31.6 nM | IC50 (second compound 0.03 µM): < 31.6 nM | IC50 (second compound 0.0949 µM): < 31.6 nM | IC50 (second compound 0.3 µM): < 31.6 nM | viability, T/C [1]: 41.3% | viability, T/C [2]: 46.5% | viability, T/C [3]: 55% | viability, T/C [4]: 51.5% | viability, T/C [5]: 45.7% | viability, T/C [6]: 38% | viability, T/C [7]: 22.9% | viability, T/C [8]: 24.4% | viability, T/C [9]: 26.9% | viability, T/C [10]: 28.8% | viability, T/C [11]: 24.8% | viability, T/C [12]: 24.8% | viability, T/C [13]: 15.6% | viability, T/C [14]: 16.8% | viability, T/C [15]: 17.4% | viability, T/C [16]: 18.4% | viability, T/C [17]: 18.9% | viability, T/C [18]: 18.6% | viability, T/C [19]: 14% | viability, T/C [20]: 14.2% | viability, T/C [21]: 16.5% | viability, T/C [22]: 16.2% | viability, T/C [23]: 15.4% | viability, T/C [24]: 12.7% | viability, T/C [25]: 10% | viability, T/C [26]: 11% | viability, T/C [27]: 10.4% | viability, T/C [28]: 11.8% | viability, T/C [29]: 16.1% | viability, T/C [30]: 10.8% | viability, T/C [31]: 9.44% | viability, T/C [32]: 10.4% | viability, T/C [33]: 11.2% | viability, T/C [34]: 11% | viability, T/C [35]: 13.1% | viability, T/C [36]: 11.4%

Reference: PubChem BioAssay AID2060902 (Molecular Pharmacology Branch, DTP, NCI, 2025)
